Source: patent US20260256753A1, “USE OF AN OREXIN 2 RECEPTOR AGONIST FOR IMPROVING RESPIRATORY FUNCTION DURING SLEEP” (TAKEDA PHARMACEUTICAL COMPANY LIMITED, priority 2023, published 2026)

Tests used:
[1] = test system: patients with obstructive sleep apnea; assay: Phase 1b crossover study in obstructive sleep apnea: upper airway collapsibility index (UACI) during wakefulness; type: in vivo, human
Procedure: A phase 1b, randomized, double-blind, placebo-controlled, 3-period crossover study was conducted to evaluate the safety, tolerability, pharmacodynamic, and pharmacokinetic effects of overnight intravenous COMPOUND A in patients with obstructive sleep apnea (OSA). This study was planned to further evaluate COMPOUND A intravenous administration (IV) in adults with OSA, hypothesizing that nonwake-promoting exposures of COMPOUND A would increase genioglossal muscle tone and increase airway patency via the increasing activity of hypoglossal motoneurons. The main goal of this study was to evaluate the mechanistic potential of OX2R agonism for treatment of OSA using COMPOUND A IV infusion to determine appropriate use in future trials with an oral OX2R agonist.
Eligible participants were randomly assigned (in a double-blinded manner) to 1 of 6 treatment sequences. In each treatment period, participants underwent 3 UACI assessments, a 10-minute evaluation that tested the key biological mechanism that causes OSA (as described by Osman, A. M., et al., 2019, Sleep, 42 (7), 1-10), followed by an overnight polysomnography (PSG). After the first baseline UACI assessment (U1), an IV infusion regimen of COMPOUND A or placebo was administered over approximately 10 hours to achieve specific plasma concentrations to evaluate the effect of COMPOUND A on the UACI and PSG metrics. […]

[2] = biological target: T1, OX2R (Homo sapiens, UniProt O43614); conditions: OX2R-expressed recombinant cells; cited from earlier work
T1 sequence (O43614 1-444): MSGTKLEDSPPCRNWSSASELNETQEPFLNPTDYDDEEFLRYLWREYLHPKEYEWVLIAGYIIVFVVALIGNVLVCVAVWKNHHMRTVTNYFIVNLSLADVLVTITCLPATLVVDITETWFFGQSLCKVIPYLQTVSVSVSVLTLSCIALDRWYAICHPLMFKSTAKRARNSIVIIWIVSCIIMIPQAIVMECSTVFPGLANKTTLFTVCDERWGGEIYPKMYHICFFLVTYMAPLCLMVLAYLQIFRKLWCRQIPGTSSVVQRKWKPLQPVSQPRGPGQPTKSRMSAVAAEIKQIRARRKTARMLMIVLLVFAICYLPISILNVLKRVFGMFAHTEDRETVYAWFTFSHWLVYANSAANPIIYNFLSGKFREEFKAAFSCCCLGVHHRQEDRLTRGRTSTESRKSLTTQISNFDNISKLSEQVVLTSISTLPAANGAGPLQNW

[3] = Plasma concentration of Compound C after intravenous and oral administration in rats; type: in vivo, rat; conditions: intravenous 0.3 and 1 mg/kg versus oral 3 and 10 mg/kg, respectively
Procedure: Due to technical feasibility of the experiment, anesthetized rats were used for EMG recording of the diaphragm. Compound C was administered intravenously to anesthetized rats in this experiment. To understand the relationship between the plasma effective concentration of Compound C for arousal and that for activation of the diaphragm, plasma concentration of Compound C after intravenous administration was measured. The maximum plasma concentrations of Compound C after intravenous administration at 0.3 and 1 mg/kg were similar to those after oral administration at 3 and 10 mg/kg, respectively.

Row | SMILES | upper airway collapsibility as measured by UACI [1] | calcium mobilization [2] | maximum plasma concentrations after intravenous administration compared with oral administration [3]
1 | COC(=O)N1CCC[C@H](NS(C)(=O)=O)[C@@H]1CO[C@H]1CC[C@@H](c2ccccc2)CC1 (relative stereo) [Compound A, methyl(2R,3S)-3-((methylsulfonyl)amino)-2-(((cis-4-phenylcyclohexyl)oxy)methyl) piperidine-1-carboxylate] | no consistent improvement | increase calcium mobilization | 
2 | CC(C)(O)C(=O)N1CC(F)(F)[C@H](NS(C)(=O)=O)[C@@H]1Cc1cccc(-c2cc(F)cc(F)c2)c1F [Compound C, N-{(2S,3R)-4,4-difluoro-1-(2-hydroxy-2-methylpropanoyl)-2-[(2,3′,5′-trifluoro[1,1′-biphenyl]-3-yl)methyl]pyrrolidin-3-yl}methanesulfonamide] |  |  | similar
